# Measured values as given in BindingDB's records for doi:10.1016/j.bmcl.2005.01.004 (Wyeth-Ayerst Research, 2005).
# Molecular target: Proto-oncogene tyrosine-protein kinase Src (Homo sapiens, UniProt P12931)
# Test: Homogeneous Time-resolved Fluorescence (HTRF) Assay
# Protocol: Kinase assays were performed using the europium/APC detection format (LANCE, Perkin Elmer). HTRF is based on the proximity of europium cryptate (donor fluorophore)-labeled antiphosphotyrosine and streptavidin labeled with APC(allophycocyanin), which have been brought together by a binding reaction.
# Sequence of Proto-oncogene tyrosine-protein kinase Src (P12931 2-536 limits assumed): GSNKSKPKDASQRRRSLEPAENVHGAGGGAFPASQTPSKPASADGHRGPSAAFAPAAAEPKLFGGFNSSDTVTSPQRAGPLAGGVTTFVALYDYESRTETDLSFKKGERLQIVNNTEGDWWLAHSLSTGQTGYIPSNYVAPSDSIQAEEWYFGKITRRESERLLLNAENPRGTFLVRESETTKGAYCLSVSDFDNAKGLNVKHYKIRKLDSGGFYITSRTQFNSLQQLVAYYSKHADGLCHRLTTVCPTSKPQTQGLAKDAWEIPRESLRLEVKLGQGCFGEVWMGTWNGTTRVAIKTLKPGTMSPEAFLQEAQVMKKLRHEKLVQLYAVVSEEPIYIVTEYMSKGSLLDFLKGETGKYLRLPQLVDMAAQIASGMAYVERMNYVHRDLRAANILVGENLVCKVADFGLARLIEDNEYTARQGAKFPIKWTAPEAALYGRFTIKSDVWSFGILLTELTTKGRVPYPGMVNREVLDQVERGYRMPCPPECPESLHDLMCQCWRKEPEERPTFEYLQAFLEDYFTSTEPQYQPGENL
row,Compound,IC50 [nM]
1,"N#Cc1cnc2cc(/C=C/c3ccncc3)ccc2c1NCc1cc(Cl)cc(Cl)c1 [4-{[(3,5-dichlorophenyl)methyl]amino}-7-[(E)-2-(pyridin-4-yl)ethenyl]quinoline-3-carbonitrile]",1000
2,"COc1cc2c(Nc3cc(OC)c(OC)c(OC)c3)c(C#N)cnc2cc1/C=C/c1cc[n+]([O-])cc1 [4-[(E)-2-{3-cyano-6-methoxy-4-[(3,4,5-trimethoxyphenyl)amino]quinolin-7-yl}ethenyl]-1-oxidopyridin-1-ium]",11
